The values below are quoted from earlier work in patent publication US20250231185A1, “Coronavirus T Cell Epitopes, Megapools and Uses Thereof” (La Jolla Institute for Immunology, priority 2021, published 2025).

The subject of the data set is CD4+ T cells. Conditions: cited from earlier work; for Dominant: SARS-CoV-2-derived CD4 epitopes, Yes = recognized by 3 or more donors/different studies; for Restriction: T cell subset (CD4 or CD8) recognizing the SARS-CoV-2 epitope; for Allele(s): HLA class II allele(s) identified as MHC restriction elements of the CD4 epitope.

Entries after “also recorded” stand apart in the source; their conditions may differ.

In the case of 37 (IKDLPKEITVATSRT) [compound 37], the Dominant entry is “Yes (more dominant epitopes are defined by being recognized by 3 or more donors/different studies)” and the Restriction result was “CD4”.

As for 38 (KEITVATSRTLSYYK) [compound 38], the “Allele(s)” value is on record as “DQB1*06:03, DRB1*03:01,; also recorded: DRB1*07:01, DRB1*14:01,; also recorded: DRB1*14:06, DRB1*15:01,; also recorded: DRB1*16:02”; the Dominant result is recorded as “Yes (more dominant epitopes are defined by being recognized by 3 or more donors/different studies)”; the Restriction result was “CD4”.

As for 39 (ATSRTLSYYKLGASQ) [compound 39], the “Allele(s)” value is reported as “DQB1*05:01, DQB1*05:03,; also recorded: DRB1*16:01” and the Restriction result is given as “CD4”. For 40 (TSRTLSYYKLGASQRVA) [compound 40], the Dominant entry is reported as “Yes (more dominant epitopes are defined by being recognized by 3 or more donors/different studies)” and the Restriction result is listed as “CD4”.

On to 41 (SRTLSYYKLGASQRV) [compound 41], for which the “Allele(s)” value is listed as “DRB5*01:01, DRB5*01:02”; the Dominant entry is listed as “Yes (more dominant epitopes are defined by being recognized by 3 or more donors/different studies)”; the Restriction result was “CD4”.

With 43 (SYYKLGASQRVAGDS) [compound 43], the “Allele(s)” value is given as “DQB1*03:01, DRB1*01:01,; also recorded: DRB1*07:01”; the Dominant result is “Yes (more dominant epitopes are defined by being recognized by 3 or more donors/different studies)”; the Restriction result is listed as “CD4”. With 44 (LGASQRVAGDSGFAA) [compound 44], the Dominant entry is “Yes (more dominant epitopes are defined by being recognized by 3 or more donors/different studies)” and the Restriction result is “CD4”. Turning to 45 (RVAGDSGFAAYSRYR) [compound 45], the Restriction result is “CD4”. On to 46 (SGFAAYSRYRIGNYK) [compound 46], for which the “Allele(s)” value is on record as “DRB1*15:01”, the Dominant entry is on record as “Yes (more dominant epitopes are defined by being recognized by 3 or more donors/different studies)” and the Restriction entry is recorded as “CD4”.

Take 47 (YSRYRIGNYKLNTDH) [compound 47]: the Restriction entry is given as “CD4”. For 48 (IGNYKLNTDHSSSSD) [compound 48], the “Allele(s)” value was “DRB1*03:01” and the Restriction result is “CD4”. As to 49 (LNTDHSSSSDNIALL) [compound 49], the Restriction result was “CD4”. As to 50 (PQNQRNAPRITFGGP) [compound 50], the Restriction result is reported as “CD4”. For the substance 51 (NAPRITFGGPSDSTG) [compound 51], the “Allele(s)” value is on record as “DQB1*03:01” and the Restriction entry is given as “CD4”. Regarding 52 (TFGGPSDSTGSNQNG) [compound 52], the “Allele(s)” value is on record as “DQB1*03:01” and the Restriction result is on record as “CD4”. 53 (ASWFTALTQHGKEDL) [compound 53]: the Dominant result is “Yes (more dominant epitopes are defined by being recognized by 3 or more donors/different studies)” and the Restriction result is “CD4”. As for 54 (SWFTALTQHGKEDLK) [compound 54], the Dominant result is reported as “Yes (more dominant epitopes are defined by being recognized by 3 or more donors/different studies)” and the Restriction entry is “CD4”. For the substance 55 (LTQHGKEDLKFPRGQ) [compound 55], the Restriction result was “CD4”. 56 (FPRGQGVPINTNSSP) [compound 56]: the Restriction result is reported as “CD4”.

Take 57 (GVPINTNSSPDDQIG) [compound 57]: the Restriction entry is “CD4”. 58 (DDQIGYYRRATRRIR) [compound 58]: the “Allele(s)” value is given as “DRB1*01:03, DRB1*07:01,; also recorded: DRB1*13:01, DRB1*14:01,; also recorded: DRB1*14:06, DRB1*15:01,; also recorded: DRB1*16:02”; the Dominant entry is reported as “Yes (more dominant epitopes are defined by being recognized by 3 or more donors/different studies)”; the Restriction result is on record as “CD4”. For 59 (IGYYRRATRRIRGGD) [compound 59], the Dominant result is recorded as “Yes (more dominant epitopes are defined by being recognized by 3 or more donors/different studies)” and the Restriction entry is given as “CD4”. As to 60 (YYRRATRRIRGGDGK) [compound 60], the “Allele(s)” value is “DRB1*13:01, DRB1*14:06”; the Dominant result is recorded as “Yes (more dominant epitopes are defined by being recognized by 3 or more donors/different studies)”; the Restriction result is given as “CD4”.

Take 61 (TRRIRGGDGKMKDLS) [compound 61]: the Restriction result is “CD4”. Turning to 65 (PRWYFYYLGTGPEAG) [compound 65], the “Allele(s)” value is on record as “DQB1*02:01, DQB1*05:03” and the Restriction entry is on record as “CD4”. Regarding 66 (RWYFYYLGTGPEAGL) [compound 66], the Dominant result is on record as “Yes (more dominant epitopes are defined by being recognized by 3 or more donors/different studies)” and the Restriction entry is “CD4”. Take 67 (LPYGANKDGIIWVAT) [compound 67]: the Restriction entry is listed as “CD4”. As to 68 (NKDGIIWVATEGALN) [compound 68], the “Allele(s)” value is “DQB1*02:01, DQB1*02:02,; also recorded: DQB1*03:02, DQB1*05:03,; also recorded: DRB1*04:04, DRB1*07:01”; the Dominant entry is recorded as “Yes (more dominant epitopes are defined by being recognized by 3 or more donors/different studies)”; the Restriction entry is “CD4”. Turning to 69 (KDGIIWVATEGALNT) [compound 69], the Dominant entry is “Yes (more dominant epitopes are defined by being recognized by 3 or more donors/different studies)” and the Restriction entry was “CD4”. As for 70 (IWVATEGALNTPKDH) [compound 70], the Restriction entry was “CD4”. Take 71 (EGALNTPKDHIGTRN) [compound 71]: the Restriction entry is “CD4”. 72 (AIVLQLPQGTTLPKG) [compound 72]: the Dominant entry is “Yes (more dominant epitopes are defined by being recognized by 3 or more donors/different studies)” and the Restriction result is reported as “CD4”.

As to 73 (AGNGGDAALALLLLD) [compound 73], the “Allele(s)” value is “DQB1*03:01, DQB1*06:02”; the Dominant entry is listed as “Yes (more dominant epitopes are defined by being recognized by 3 or more donors/different studies)”; the Restriction entry is listed as “CD4”. For 74 (DAALALLLLDRLNQL) [compound 74], the “Allele(s)” value was “DQB1*05:01, DQB1*05:03,; also recorded: DQB1*06:02, DRB1*03:01,; also recorded: DRB1*11:01, DRB1*12:01,; also recorded: DRB1*14:01, DRB1*15:01”; the Dominant entry was “Yes (more dominant epitopes are defined by being recognized by 3 or more donors/different studies)”; the Restriction entry is “CD4”. As to 75 (LLLLDRLNQLESKMS) [compound 75], the “Allele(s)” value is on record as “DQB1*05:01, DRB1*03:01,; also recorded: DRB1*11:01, DRB1*12:01,; also recorded: DRB1*14:01, DRB1*15:01”; the Dominant result is “Yes (more dominant epitopes are defined by being recognized by 3 or more donors/different studies)”; the Restriction entry is listed as “CD4”. Regarding 76 (GKGQQQQGQTVTKKS) [compound 76], the Restriction result is on record as “CD4”. Consider 77 (AAEASKKPRQKRTAT) [compound 77], for which the Dominant entry is “Yes (more dominant epitopes are defined by being recognized by 3 or more donors/different studies)” and the Restriction result was “CD4”. Consider 78 (KKPRQKRTATKAYNV) [compound 78], for which the Dominant result is “Yes (more dominant epitopes are defined by being recognized by 3 or more donors/different studies)” and the Restriction result is “CD4”.
